The values that follow come from patent US20240368164A1, “PURINE NUCLEOSIDES, THEIR INTERMEDIATES, AND METHODS OF PREPARATION THEREOF” (Astrocyle Pharmaceuticals, Inc., priority 2021, published 2024).

Data set [1] has as its system photothrombosis-induced stroke in mice. Description: Mouse photothrombotic stroke model. The class given is in vivo. As to the method:
Photothrombosis-induced Stroke: Photothrombosis is performed as described in Zheng et al 2010 (PloS One 5 (12): e14401). In brief, Rose Bengal is a fluorescent dye that when injected into the vasculature and excited, generates singlet oxygen that damages the endothelial wall and induces a local thrombosis (clot). Using this technique, mice are given a 0.1 mL tail-vein injection of sterilized Rose Bengal (RB, Sigma, U.S.A.) in artificial cerebral spinal fluid (aCSF). The RB concentration is 20 mg/mL. A cortical region is centered in the imaging field and illuminated with a green laser (543 nm, 5 mW) using a 0.8-NA 40× water-immersion objective (Nikon, Tokyo). The clot formation is monitored in real time until the targeted vessel or downstream capillaries are firmly occluded. Stable clots are subsequently identified by a non-fluorescent vessel segmentation ending with highly fluorescent regions. […] Treatments, at doses such as 0.5 μmol/kg are introduced via intraperitoneal injections (i.p.). For experiments with A3 receptor antagonist MRS1523, mice are administered intraperitoneal injections (2 mg/kg) at the 0 and 2 hour timepoints to ensure receptor antagonism throughout the course of the study.
Animals and Photothrombosis-induced Stroke: Stroke is performed as described in Zheng et al 2010 (PloS One 5 (12): e14401). Female C57Bl/6 mice (4-6 months) are used in this study. From the methods of this manuscript: Mice are anesthetized at 3% isoflurane with 100% oxygen and subsequently maintained at 1% isoflurane through a nosecone. Depth of anesthesia is monitored and regulated according to vital signs, pinch withdrawal and eye blinks. Body temperature is maintained at 37° C. by a feedback-controlled heating pad (Gaymar T/Pump). Vital signs including oxygen saturation, respiratory rate, and heart rate are continuously monitored by using the MouseOx system (STARR Life Sciences). […]
Post photothrombotic infarction evaluation. The size of cerebral infarcts is evaluated using 2,3,5-Triphenyltetrazolium chloride (TTC) staining as described in Zheng et al 2010 (PloS One 5 (12): e14401). […]

The nature of data set [2]: Plasma protein binding (free fraction). It is filed as in vitro ADME, mouse. The source says:
Example 3 of U.S. Pat. No. 9,789,131, which is incorporated herein by reference, describes assays for determining the plasma and brain free fraction of certain compounds such as I-1. Compounds described herein may be evaluated using such assays or similar variants thereof.

As for `CSc1nc(N)c2ncn([C@H]3[C@H](O)[C@H](O)[C@]4(CO)C[C@H]34)c2n1` [Compound I-1, (1R,2R,3S,4R,5S)-4-(6-Amino-2-(methylthio)-9H-purin-9-yl)-1-(hydroxymethyl)bicyclo[3.1.0]hexane-2,3-diol], the “efficacy of I-1 in presence of A3 antagonist MRS1523” value in data set [1] (mouse photothrombotic stroke and TBI models, with MRS1523) is “blocked”. Moreover, the “efficacy in mouse photothrombotic stroke model” value in data set [1] (mouse, stroke) is listed as “significant efficacy”. The “free (unbound) fraction in plasma” value in data set [2] amounted to 0.74.
